Experimental data reported in PMC11504230, “Comparative Properties of Helical and Linear Amphipathicity of Peptides Composed of Arginine, Tryptophan, and Valine” (Antibiotics, 2024).
Ends that are not written are not given here.

Experiments:
[1] = tested on: A. baumannii; assay type: cell-based; conditions: 18 h
Protocol: (§1) To examine antibacterial activity, we used minor modifications of a standard growth inhibition assay endorsed by the Clinical and Laboratory Standards Institute (CLSI), as previously described. Bacterial inocula for testing were prepared from exponential growth phase by diluting overnight cultures at 1:100 with fresh Tryptic soy broth (TSB) (Millipore Sigma, USA, Cat. No. 22092-500G) and incubating for an additional 3–4 h. Bacteria were spun at 3000× g for 10 min and the pellet was resuspended in phosphate-buffered saline (PBS) (Millipore Sigma, St Louis, MO, USA, Cat. No. P4417) to determine bacterial turbidity using a Den-1B densitometer (Grant Instruments, Beaver Falls, PA, USA) at 0.5 McFarland (unit of bacterial density) corresponding to […]. The prepared bacteria were incubated with each of the indicated peptides at a maximum test concentration of 16 µM and serially diluted in MHB2 and RPMI 1640 (Corning, NY, USA, Cat. No. 15-040-CM) at a 1:1 ratio. The plates were kept in an 8-drawer incubator for 18 h at 37 °C. A robotic system takes a plate from the drawer every hour and feeds a plate reader, which records the kinetics of bacterial growth at 570 nm to examine growth inhibition in real time (BioTek Instruments, Winooski, VT, USA). The minimum inhibitory concentration or MIC is the minimum peptide concentration that prevented bacterial growth, and it is objectively indicated by a flat (horizontal) line in the bacterial growth kinetic graph. Most assays are completed in duplicate. To assay for anti-biofilm activities, the 96-well plate from the growth inhibition assay is incubated for an additional 6 h (24 h total). The biomass was detected with crystal violet using a plate reader at A570, as previously described.
(§2) Figure 2 Comparative antibacterial activities of the H-RWV and L-RWV series. The 2 series were compared against MDR strains of 6 organisms as indicated. The test medium was composed of physiologically relevant RFM (60% RPMI plus 10% fetal bovine serum or FBS and 30% cation-adjusted MHB); endogenous AMP control was Indolicidin (Indo); small-molecule antibiotic controls were cefazolin, ceftazidime (Ceft), and meropenem (Mero). MIC, minimum inhibitory concentration with means represented by the black and red horizontal bars, which are used to determine the MOLs (minimum optimal lengths) indicated by the red and black arrows. (A–F) is based on the test organism as indicated. Data are representative of 2 independent trials. Corresponding Table 2 provides the mean MICs for the strains of each organism. The numbers stand for each peptide: 8, L/H-RWV8; 10, L/H-RWV10, etc.; red bar, mean MIC of L-RWV peptides and black bars, mean MIC of H-RWV peptides.

[2] = tested on: E. coli; assay type: cell-based; conditions: 18 h
Protocol: as §1, §2

[3] = tested on: E. faecium; assay type: cell-based; conditions: 18 h
Protocol: as §1, §2

[4] = tested on: Enterobacter spp.; assay type: cell-based; conditions: 18 h
Protocol: as §1, §2

[5] = tested on: K. pneumoniae; assay type: cell-based; conditions: 18 h
Protocol: as §1, §2

[6] = tested on: P. aeruginosa; assay type: cell-based; conditions: 18 h
Protocol: as §1, §2

[7] = tested on: S. aureus; assay type: cell-based; conditions: 18 h
Protocol: as §1, §2

[8] = tested on: S. aureus (SA719) biofilm; assay type: cell-based; conditions: 24 h
Protocol: as §1
Figure 3 Antibiofilm activities of the […] peptides. MBEC or minimum biofilm elimination concentration is the minimum concentration at which no biomass was detected by the crystal violet method. Standard deviations reflect differences between 2 independent trials. The dashed line is to clarify the mid-point between 0 and 5.

[9] = tested on: human red blood cells; assay: Red blood cell lysis; assay type: cell-based; conditions: H-RWV16 versus L-RWV12
Protocol: Lytic effects on human red blood cells were examined as previously described. Briefly, RBCs were separated by histopaque differential centrifugation using blood anonymously obtained from Vitalant (Pittsburgh, PA, USA). For RBC lysis assay, the isolated RBCs were resuspended in PBS at a concentration of 5%. The peptides were serially diluted 2-fold in 100 µL of PBS with a starting concentration of 32 µM. A volume of 100 µL of the prepared 5% RBC solution was then added for a final concentration of 2.5% RBC and incubated for 1 h. After incubation, the plates were centrifuged at 1000× g for 7 min and the supernatant was removed to measure its OD. In parallel, a standard curve of RBC lysis was generated by lysing the RBCs with deionized water at […] RBC dilutions of 10, 20, 30, 40, 50, 60, 70, 80, 90, and 100% to determine the percentage of RBC lysis in the test samples. Both the treated test samples and standard curve were read at A570. Three independent trials of the experiment were conducted.
Figure 4 Human RBC lytic effects of the […] peptides. Indolicidin (Indo) was used as control; RBC lysis was assayed in PBS as described in Methods. For clarity, the dashed line indicates the 10% lysis mark across the graph as a critical point between minor (<10%) and moderate (>10%) RBC lysis.

Sequence | Mean MIC, A. baumannii [1] [µM] | Mean MIC, E. coli [2] [µM] | Mean MIC, E. faecium [3] [µM] | Mean MIC, Enterobacter spp. [4] [µM] | Mean MIC, K. pneumoniae [5] [µM] | Mean MIC, P. aeruginosa [6] [µM] | Mean MIC, S. aureus [7] [µM] | MBEC (minimum biofilm elimination concentration, no detectable biomass) [8] [µM] | Lytic effect on human RBCs relative to L-RWV12 [9] [fold] | RBC lysis [%]
RRRRRRRRWWWWVVVV [L-RWV16] | 21 ± 11 | 24 ± 10 | 32 | 32 | 32 | 32 | 32 |  |  | 
RRRRRRRWWWWVVV [L-RWV14] | 7.4 ± 6.2 | 4.4 ± 2.7 | 19 ± 11 | 16.9 ± 14 | 3 ± 1 | 21 ± 9 | 3 ± 1 | 2.6 ± 1.2 |  | 
RRRRRRWWWWVV [L-RWV12] |  | 4.6 ± 1.6 |  |  |  |  |  | 2.5 ± 1.3 |  | 
RRRRRWWWWV [L-RWV10] | 8.5 ± 3.6 | 8 | 21 ± 9.5 | 32 | 26 ± 8.2 | 22 ± 7.7 | 26 ± 8 |  |  | 
RRRRWWWW [L-RWV8] | 10.2 ± 0.9 | 16 | 30 ± 5 | 30.2 ± 5.3 | 20 ± 7.4 | 30 ± 5.2 | 20. ± 0.7 |  |  | 
RRVWRWVRRVWRWVRR [H-RWV16] |  |  |  |  |  |  |  |  | 3 | 
RRVWRWVRRWWR [H-RWV12] | 6 ± 2.3 | 6.4 ± 2.2 | 28 ± 10 | 28 ± 7.4 | 18 ± 12 | 24 ± 8 | 18 ± 12 | 2 |  | 
RRVWRWVRRWWRRV [H-RWV14] | 8 ± 5.6 |  | 17 ± 12 | 7.2 ± 5.6 | 7.5 ± 12 | 12 ± 4 | 7.5 ± 12 | 1.7 ± 0.5 |  | 3
RRWWRRVWRW [H-RWV10] | 22 ± 12 | 22 ± 8.8 | 19 ± 13 | 32 | 29 ± 6.5 | 24 ± 8 | 29 ± 6.5 |  |  | 
RRWWRRWW [H-RWV8] | 24 ± 9.2 | 24 ± 8.8 | 32 | 32 | 29 ± 7.1 | 27 ± 7.5 | 29 ± 7 |  |  | 
